Results on one compound are retold here after ChEMBL document CHEMBL1135206, “Albumin affinity tags increase peptide half-life in vivo” (Bioorg Med Chem Lett, 2002).

Where a SMILES comes first, the peptide text is derived from it. Bridges are numbered along the chain shown (N, C = ends). The star is where a group is joined. X1 = CC(C)Cc1ccc([C@@H](C)C(=O)*)cc1

Data set [1] in a line: Plasma half-life in male New Zealand white rabbits after i.v. administration at 2.0 mg/kg. It counts as ADME, organism-based, Oryctolagus cuniculus. The arrangement: dose 2 mg/kg, route intravenous. To be noted: rabbit, iv.
The nature of data set [2]: Mean retention time in male New Zealand white rabbits after administration via an indwelling catheter in an ear vein at 4.9 mg/kg. Also on record: dose 4.9 mg/kg. It counts as ADME, organism-based, Oryctolagus cuniculus. To be noted: rabbit, in vivo, iv.
Data set [3] is described as follows: Mean retention time in male New Zealand white rabbits after i.v. administration at 2.0 mg/kg. In kind it is ADME, organism-based, Oryctolagus cuniculus. The arrangement: dose 2 mg/kg, route intravenous. To be noted: rabbit, in vivo, iv.
Data set [4] in a line: Plasma half-life in male New Zealand white rabbits after administration via an indwelling catheter in an ear vein at 4.9 mg/kg. In kind it is ADME, organism-based, Oryctolagus cuniculus. Also on record: dose 4.9 mg/kg. To be noted: rabbit, iv.
Data set [5] can be described thus: Clearance in male New Zealand white rabbits after administration via an indwelling catheter in an ear vein at 4.9 mg/kg. The arrangement: dose 4.9 mg/kg. To be noted: rabbit, in vivo, iv. In kind it is ADME, organism-based, Oryctolagus cuniculus.
Data set [6] is described as follows: Clearance in male New Zealand white rabbits after i.v. administration at 2.0 mg/kg. Also on record: dose 2 mg/kg, route intravenous. In kind it is ADME, organism-based, Oryctolagus cuniculus. As to conditions: rabbit, in vivo, iv.
A further data set deals with T1, Coagulation factor VII (Homo sapiens, UniProt P08709).
T1 sequence (P08709 whole entry): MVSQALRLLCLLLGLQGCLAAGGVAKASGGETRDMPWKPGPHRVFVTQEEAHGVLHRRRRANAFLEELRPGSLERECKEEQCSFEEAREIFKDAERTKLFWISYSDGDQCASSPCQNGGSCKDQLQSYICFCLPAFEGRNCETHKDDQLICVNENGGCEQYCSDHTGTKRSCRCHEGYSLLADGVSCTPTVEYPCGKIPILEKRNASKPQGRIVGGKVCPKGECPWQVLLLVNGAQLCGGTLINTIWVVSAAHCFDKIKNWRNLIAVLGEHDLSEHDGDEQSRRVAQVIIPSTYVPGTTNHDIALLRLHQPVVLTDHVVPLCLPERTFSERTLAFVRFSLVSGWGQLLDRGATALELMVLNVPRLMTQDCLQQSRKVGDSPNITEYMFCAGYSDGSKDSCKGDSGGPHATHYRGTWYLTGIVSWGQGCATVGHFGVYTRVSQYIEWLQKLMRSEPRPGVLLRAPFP
The experiment in a line: Inhibition of amino terminally biotinylated E-76 peptide binding to immobilized fVIIa.

A further data set has as its target Albumin (Homo sapiens, UniProt P02768). The experiment in a line: In vitro binding affinity for human serum albumin. The arrangement: unit not given here.

Sequence of Albumin (P02768 whole entry): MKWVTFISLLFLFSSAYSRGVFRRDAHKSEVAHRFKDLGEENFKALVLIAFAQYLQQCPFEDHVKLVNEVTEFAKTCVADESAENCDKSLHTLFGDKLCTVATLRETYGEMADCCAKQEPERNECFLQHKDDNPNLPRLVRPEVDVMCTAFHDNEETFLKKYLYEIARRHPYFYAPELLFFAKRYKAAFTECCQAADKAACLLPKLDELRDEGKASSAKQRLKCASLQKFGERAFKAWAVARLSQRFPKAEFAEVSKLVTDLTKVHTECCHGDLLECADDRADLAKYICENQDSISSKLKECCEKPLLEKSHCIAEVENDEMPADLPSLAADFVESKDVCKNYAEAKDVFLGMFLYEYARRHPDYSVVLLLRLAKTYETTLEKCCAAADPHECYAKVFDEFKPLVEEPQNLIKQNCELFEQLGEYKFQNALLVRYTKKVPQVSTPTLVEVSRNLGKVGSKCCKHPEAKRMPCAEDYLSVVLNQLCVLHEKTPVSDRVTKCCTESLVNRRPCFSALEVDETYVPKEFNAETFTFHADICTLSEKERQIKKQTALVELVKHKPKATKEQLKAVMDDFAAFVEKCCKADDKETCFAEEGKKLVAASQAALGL

Broadly, the half-life is how long it takes for the measured level to halve. The term MRT denotes the average time that molecules of a dose stay in the body. By clearance is commonly meant a measure of how efficiently the substance is removed, as volume per time. A word on the IC50: it is the concentration that inhibits the measured activity by half. Regarding `CC[C@H](C)[C@@H]1NC(=O)[C@H](CCCN=C(N)N)NC(=O)[C@@H]2CCCN2C(=O)[C@H](CC(N)=O)NC(=O)[C@H](CC(=O)O)NC(=O)[C@@H](NC(=O)[C@H](CC(C)C)NC(=O)[C@H](C)NC(=O)[C@H](C)c2ccc(CC(C)C)cc2)CSSC[C@@H](C(=O)N[C@@H](CCC(N)=O)C(=O)N[C@@H](Cc2ccccc2)C(=O)N[C@H](C(=O)N[C@@H](CCC(=O)O)C(=O)NCC(N)=O)C(C)C)NC(=O)[C@H](Cc2ccc(O)cc2)NC(=O)[C@H](Cc2c[nH]c3ccccc23)NC(=O)[C@H](CCCN=C(N)N)NC(=O)[C@H](CC(=O)O)NC1=O` (X1-ALCDNPRIDRWYCQFVEG-NH2; disulfide 3-13), the values for the half-life in data set [1] and in data set [4] were 17 min and 24 min, respectively. Besides, the MRT in data set [2] is 33 min; in data set [3] it was 19 min. Further, the clearance in data set [5] is 1.5 mL/min/kg; in data set [6], 1.8 mL/min/kg. The same compound registered an IC50 at Coagulation factor VII of 14.6 nM. This compound also came in with a Binding affinity at Albumin of 0.76.
